Assay results: PubChem BioAssay AID248 (DTP/NCI, 2004)
Where “and” joins values, the source holds several entries; their conditions need not be identical. Equal entries are not always repeated. Toxic doses and inconclusive results are not listed. Rule as the data show it: active = T/C of 150% or more; inactive = T/C below 125%.

Test system: L1210 leukemia ip in BDF1 mice, survival T/C
Test: NCI In Vivo Anticancer Drug Screen. Data for tumor model L1210 Leukemia (intraperitoneal) in B6D2F1 (BDF1) mice
Details: higher = longer survival
Method in brief: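 Read-out is survival time, reported as the treated-group measurement over the vehicle-control measurement.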

[1] = endpoint: mean survival time, dose: 100.0 mg/kg/injection, schedule: Q01DX001 (ip), vehicle: other
[2] = endpoint: mean survival time, dose: 25.0 mg/kg/injection, schedule: Q01DX009 (ip), vehicle: saline
[3] = endpoint: mean survival time, dose: 50.0 mg/kg/injection, schedule: Q01DX009 (ip), vehicle: saline
[4] = endpoint: mean survival time, dose: 100.0 mg/kg/injection, schedule: Q04DX003 (ip), vehicle: saline
[5] = endpoint: mean survival time, dose: 50.0 mg/kg/injection, schedule: Q01DX001 (ip), vehicle: saline
[6] = endpoint: mean survival time, dose: 100.0 mg/kg/injection, schedule: Q01DX001 (ip), vehicle: saline
[7] = endpoint: mean survival time, dose: 200.0 mg/kg/injection, schedule: Q01DX001 (ip), vehicle: saline
[8] = endpoint: mean survival time, dose: 400.0 mg/kg/injection, schedule: Q01DX001 (ip), vehicle: saline

Measured: T/C

CSc1ncnc2c1ncn2N(CCCl)C(C)=O
inactive: endpoint: mean survival time, dose: 25.0 mg/kg/injection, schedule: Q01DX001 (ip), vehicle: other 96 % of control | endpoint: mean survival time, dose: 25.0 mg/kg/injection, schedule: Q01DX009 (ip), vehicle: other 101 % of control | endpoint: mean survival time, dose: 25.0 mg/kg/injection, schedule: Q04DX003 (ip), vehicle: other 100 % of control | endpoint: mean survival time, dose: 50.0 mg/kg/injection, schedule: Q01DX001 (ip), vehicle: other 98 % of control | endpoint: mean survival time, dose: 50.0 mg/kg/injection, schedule: Q01DX009 (ip), vehicle: other 105 % of control | endpoint: mean survival time, dose: 50.0 mg/kg/injection, schedule: Q04DX003 (ip), vehicle: other 103 % of control | [1] 96 % of control and 105 % of control | endpoint: mean survival time, dose: 100.0 mg/kg/injection, schedule: Q01DX009 (ip), vehicle: other 97 % of control | endpoint: mean survival time, dose: 100.0 mg/kg/injection, schedule: Q04DX003 (ip), vehicle: other 102 % of control

CCCC(=O)N1CCCCC1
inactive: endpoint: mean survival time, dose: 100.0 mg/kg/injection, schedule: Q04DX002 (ip), vehicle: Klucel (hydroxypropylcellulose) (HPC) 88 % of control

C/C(=N/O)c1ccc[nH]1
inactive: [1] 103 % of control | endpoint: mean survival time, dose: 200.0 mg/kg/injection, schedule: Q01DX001 (ip), vehicle: other 103 % of control | endpoint: mean survival time, dose: 400.0 mg/kg/injection, schedule: Q01DX001 (ip), vehicle: other 103 % of control

CC(C)(C)[CH2][Sn]([Cl])([CH2]C(C)(C)C)[CH2]C(C)(C)C
inactive: endpoint: mean survival time, dose: 12.5 mg/kg/injection, schedule: Q04DX002 (ip), vehicle: saline with Tween-80 92 % of control

NC(=O)c1ccc(OC(F)(F)C(F)Cl)cc1OC(F)(F)C(F)Cl (centres undefined)
inactive: endpoint: mean survival time, dose: 100.0 mg/kg/injection, schedule: Q04DX003 (ip), vehicle: saline with Tween-80 98 % of control | endpoint: mean survival time, dose: 400.0 mg/kg/injection, schedule: Q04DX003 (ip), vehicle: saline with Tween-80 102 % of control

Cc1nc(CN(C)C)c2cnccn12
inactive: [2] 109 % of control | [3] 113 % of control | [4] 98 % of control

CC(=O)/C(C)=C/C(=O)O
inactive: [2] 95 % of control | endpoint: mean survival time, dose: 25.0 mg/kg/injection, schedule: Q04DX003 (ip), vehicle: saline 97 % of control | [3] 97 % of control | endpoint: mean survival time, dose: 50.0 mg/kg/injection, schedule: Q04DX003 (ip), vehicle: saline 97 % of control | endpoint: mean survival time, dose: 100.0 mg/kg/injection, schedule: Q01DX009 (ip), vehicle: saline 105 % of control | [4] 97 % of control and 108 % of control

O=C(O)c1n[nH]nc1[N+](=O)[O-]
inactive: endpoint: mean survival time, dose: 75.0 mg/kg/injection, schedule: Q01DX001 (ip), vehicle: saline 96 % of control | endpoint: mean survival time, dose: 150.0 mg/kg/injection, schedule: Q01DX001 (ip), vehicle: saline 105 % of control | endpoint: mean survival time, dose: 300.0 mg/kg/injection, schedule: Q01DX001 (ip), vehicle: saline 98 % of control

COc1ccc2c(C)c(C)[nH]c2c1
inactive: [5] 101 % of control | [6] 109 % of control | [7] 115 % of control | [8] 104 % of control

CC/C(=C(/CC)c1ccc(O)cc1)c1ccc(O)cc1
inactive: endpoint: mean survival time, dose: 6.44 mg/kg/injection, schedule: Q01DX Z (sc), vehicle: steriod suspending solution 98 % of control | endpoint: mean survival time, dose: 12.88 mg/kg/injection, schedule: Q01DX Z (sc), vehicle: steriod suspending solution 109 % of control | endpoint: mean survival time, dose: 25.0 mg/kg/injection, schedule: Q01DX009 (ip), vehicle: carboxymethylcellulose (CMC) 87 % of control | endpoint: mean survival time, dose: 25.75 mg/kg/injection, schedule: Q01DX Z (sc), vehicle: steriod suspending solution 107 % of control | [5] 90 % of control | endpoint: mean survival time, dose: 50.0 mg/kg/injection, schedule: Q01DX009 (ip), vehicle: carboxymethylcellulose (CMC) 94 % of control | endpoint: mean survival time, dose: 51.5 mg/kg/injection, schedule: Q01DX Z (sc), vehicle: steriod suspending solution 100 % of control | [6] 94 % of control | endpoint: mean survival time, dose: 100.0 mg/kg/injection, schedule: Q01DX009 (ip), vehicle: carboxymethylcellulose (CMC) 95 % of control | [7] 95 % of control | endpoint: mean survival time, dose: 200.0 mg/kg/injection, schedule: Q01DX009 (ip), vehicle: carboxymethylcellulose (CMC) 91 % of control | [8] 87 % of control | endpoint: median survival time, dose: 8.0 mg/kg/injection, schedule: Q03HX016 (ip), vehicle: saline with Tween-80 97 % of control | endpoint: median survival time, dose: 8.0 mg/kg/injection, schedule: Q03HX024 (ip), vehicle: saline with Tween-80 98 % of control | endpoint: median survival time, dose: 12.5 mg/kg/injection, schedule: Q01DX009 (sc), vehicle: steriod suspending solution 100 % of control and 111 % of control | endpoint: median survival time, dose: 16.0 mg/kg/injection, schedule: Q01DX009 (ip), vehicle: saline with Tween-80 113 % of control | endpoint: median survival time, dose: 16.0 mg/kg/injection, schedule: Q03HX008 (ip), vehicle: saline with Tween-80 101 % of control | endpoint: median survival time, dose: 16.0 mg/kg/injection, schedule: Q03HX016 (ip), vehicle: saline with Tween-80 97 % of control | endpoint: median survival time, dose: 16.0 mg/kg/injection, schedule: Q03HX024 (ip), vehicle: saline with Tween-80 91 % of control | endpoint: median survival time, dose: 25.0 mg/kg/injection, schedule: Q01DX009 (sc), vehicle: steriod suspending solution 100 % of control and 106 % of control | endpoint: median survival time, dose: 32.0 mg/kg/injection, schedule: Q01DX009 (ip), vehicle: saline with Tween-80 110 % of control | endpoint: median survival time, dose: 32.0 mg/kg/injection, schedule: Q03HX008 (ip), vehicle: saline with Tween-80 97 % of control | endpoint: median survival time, dose: 32.0 mg/kg/injection, schedule: Q03HX016 (ip), vehicle: saline with Tween-80 97 % of control | endpoint: median survival time, dose: 32.0 mg/kg/injection, schedule: Q03HX024 (ip), vehicle: saline with Tween-80 98 % of control | endpoint: median survival time, dose: 50.0 mg/kg/injection, schedule: Q01DX009 (sc), vehicle: steriod suspending solution 100 % of control and 105 % of control | endpoint: median survival time, dose: 64.0 mg/kg/injection, schedule: Q01DX009 (ip), vehicle: saline with Tween-80 103 % of control | endpoint: median survival time, dose: 64.0 mg/kg/injection, schedule: Q03HX008 (ip), vehicle: saline with Tween-80 103 % of control | endpoint: median survival time, dose: 64.0 mg/kg/injection, schedule: Q03HX016 (ip), vehicle: saline with Tween-80 100 % of control | endpoint: median survival time, dose: 64.0 mg/kg/injection, schedule: Q03HX024 (ip), vehicle: saline with Tween-80 94 % of control | endpoint: median survival time, dose: 64.0 mg/kg/injection, schedule: Q04DX003 (ip), vehicle: saline with Tween-80 100 % of control | endpoint: median survival time, dose: 64.0 mg/kg/injection, schedule: Q08DX002 (ip), vehicle: saline with Tween-80 106 % of control | endpoint: median survival time, dose: 100.0 mg/kg/injection, schedule: Q01DX009 (sc), vehicle: steriod suspending solution 100 % of control and 105 % of control | endpoint: median survival time, dose: 128.0 mg/kg/injection, schedule: Q01DX001 (ip), vehicle: saline with Tween-80 107 % of control | endpoint: median survival time, dose: 128.0 mg/kg/injection, schedule: Q01DX009 (ip), vehicle: saline with Tween-80 102 % of control | endpoint: median survival time, dose: 128.0 mg/kg/injection, schedule: Q04DX003 (ip), vehicle: saline with Tween-80 101 % of control | endpoint: median survival time, dose: 128.0 mg/kg/injection, schedule: Q08DX002 (ip), vehicle: saline with Tween-80 104 % of control | endpoint: median survival time, dose: 256.0 mg/kg/injection, schedule: Q01DX001 (ip), vehicle: saline with Tween-80 109 % of control | endpoint: median survival time, dose: 256.0 mg/kg/injection, schedule: Q04DX003 (ip), vehicle: saline with Tween-80 107 % of control | endpoint: median survival time, dose: 256.0 mg/kg/injection, schedule: Q08DX002 (ip), vehicle: saline with Tween-80 98 % of control | endpoint: median survival time, dose: 512.0 mg/kg/injection, schedule: Q01DX001 (ip), vehicle: saline with Tween-80 108 % of control | endpoint: median survival time, dose: 512.0 mg/kg/injection, schedule: Q08DX002 (ip), vehicle: saline with Tween-80 92 % of control | endpoint: median survival time, dose: 1024.0 mg/kg/injection, schedule: Q08DX002 (ip), vehicle: saline with Tween-80 102 % of control | endpoint: median survival time, dose: 2048.0 mg/kg/injection, schedule: Q08DX002 (ip), vehicle: saline with Tween-80 102 % of control

C/C(=N/N=C(N)N)c1ccc(/C(C)=N/N=C(N)N)cc1
inactive: endpoint: mean survival time, dose: 3.75 mg/kg/injection, schedule: Q01DX Z (ip), vehicle: saline 95 % of control | endpoint: mean survival time, dose: 7.5 mg/kg/injection, schedule: Q01DX Z (ip), vehicle: carboxymethylcellulose (CMC) 100 % of control | endpoint: mean survival time, dose: 7.5 mg/kg/injection, schedule: Q01DX Z (ip), vehicle: saline 101 % of control | endpoint: mean survival time, dose: 15.0 mg/kg/injection, schedule: Q01DX Z (ip), vehicle: carboxymethylcellulose (CMC) 107 % of control | endpoint: mean survival time, dose: 15.0 mg/kg/injection, schedule: Q01DX Z (ip), vehicle: saline 110 % of control and 112 % of control | endpoint: mean survival time, dose: 30.0 mg/kg/injection, schedule: Q01DX Z (ip), vehicle: carboxymethylcellulose (CMC) 117 % of control | endpoint: mean survival time, dose: 30.0 mg/kg/injection, schedule: Q01DX Z (ip), vehicle: saline 112 % of control | endpoint: mean survival time, dose: 480.0 mg/kg/injection, schedule: Q01DX009 (oral), vehicle: saline 93 % of control | endpoint: mean survival time, dose: 960.0 mg/kg/injection, schedule: Q01DX009 (oral), vehicle: saline 93 % of control
